The values that follow are results of earlier work, collected in paper PMC3352981 (Bioorganic & medicinal chemistry letters, 2012).

The test system of data set [1] is BoNT/A. Conditions: mouse.
Data set [2] concerns BoNT/A.

Each structure is given as a SMILES string.

On to `O=C(/C=C/c1ccc(Cl)cc1Cl)NO` [Compound 1, 2,4-dichlorocinnamyl hydroxamic acid], for which, in the data set on BoNT/A [1], the in vivo activity entry is on record as “marginal in vivo activity”.

Turning to `CC(C)(C)c1ccc(C=CC(=O)NO)cc1` [4-tert-butylcinnamyl hydroxamate], the “potency (in words)” value in the data set with BoNT/A [2] was “dramatic loss of potency”.
